In ChEMBL document CHEMBL5465560, “Selectivity Literature for EUbOPEN Chemogenomic Library” (2024):
Each block holds one compound with its values, some of them ahead of it.

Columns and labels:
[1] = biological target: T1, Serine/threonine-protein kinase 36 (Homo sapiens) (UniProt Q9NRP7); experiment: Selectivity interaction (KinomeScan (DiscoverX)) EUB0000655a STK36; settings: at 10 µM
T1 sequence (whole entry): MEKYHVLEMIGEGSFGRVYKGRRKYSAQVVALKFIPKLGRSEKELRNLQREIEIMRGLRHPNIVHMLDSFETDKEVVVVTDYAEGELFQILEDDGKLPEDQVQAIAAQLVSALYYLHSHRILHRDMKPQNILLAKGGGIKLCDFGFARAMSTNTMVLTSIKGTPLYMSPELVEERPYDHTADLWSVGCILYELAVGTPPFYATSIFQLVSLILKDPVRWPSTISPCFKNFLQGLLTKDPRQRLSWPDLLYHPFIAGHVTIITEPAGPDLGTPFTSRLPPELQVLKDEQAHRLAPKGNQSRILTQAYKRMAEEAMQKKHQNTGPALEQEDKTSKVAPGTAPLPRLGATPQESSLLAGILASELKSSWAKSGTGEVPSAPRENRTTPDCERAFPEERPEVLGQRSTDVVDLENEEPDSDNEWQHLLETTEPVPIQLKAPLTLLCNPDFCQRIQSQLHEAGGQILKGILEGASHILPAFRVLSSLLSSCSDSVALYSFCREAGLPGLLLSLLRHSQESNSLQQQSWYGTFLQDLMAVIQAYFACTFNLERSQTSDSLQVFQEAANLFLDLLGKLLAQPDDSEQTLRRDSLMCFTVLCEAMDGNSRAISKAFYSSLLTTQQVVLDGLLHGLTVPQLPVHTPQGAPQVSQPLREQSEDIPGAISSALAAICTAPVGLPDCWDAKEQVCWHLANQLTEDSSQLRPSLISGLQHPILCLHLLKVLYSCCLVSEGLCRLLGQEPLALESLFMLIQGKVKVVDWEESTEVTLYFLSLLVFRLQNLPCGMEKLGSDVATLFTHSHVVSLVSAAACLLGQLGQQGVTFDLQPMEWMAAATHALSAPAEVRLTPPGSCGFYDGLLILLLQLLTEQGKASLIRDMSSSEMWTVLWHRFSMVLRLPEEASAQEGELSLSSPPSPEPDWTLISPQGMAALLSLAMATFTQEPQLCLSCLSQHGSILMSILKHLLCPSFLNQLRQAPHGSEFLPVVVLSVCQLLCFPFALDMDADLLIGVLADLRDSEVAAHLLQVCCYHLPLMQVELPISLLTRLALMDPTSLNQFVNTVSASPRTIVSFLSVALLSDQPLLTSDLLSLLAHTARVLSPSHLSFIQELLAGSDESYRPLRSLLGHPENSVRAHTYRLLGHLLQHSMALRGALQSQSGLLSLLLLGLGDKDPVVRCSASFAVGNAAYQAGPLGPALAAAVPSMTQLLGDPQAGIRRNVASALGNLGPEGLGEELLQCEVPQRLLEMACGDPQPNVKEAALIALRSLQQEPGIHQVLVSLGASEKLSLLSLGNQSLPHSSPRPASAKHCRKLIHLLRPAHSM

[2] = biological target: Mitogen-activated protein kinase 3 (Homo sapiens, UniProt P27361); experiment: Selectivity interaction (KinomeScan (DiscoverX)) EUB0000655a MAPK3; settings: at 10 µM
[3] = biological target: Serine/threonine-protein kinase 38-like (Homo sapiens) (UniProt Q9Y2H1); experiment: Selectivity interaction (KinomeScan (DiscoverX)) EUB0001079a STK38L; settings: at 1 µM
[4] = biological target: Cyclin-dependent kinase 5 (Homo sapiens, UniProt Q00535); experiment: Selectivity interaction (ActivX KiNativ screen (ex vivo kinase selectivity in human PBMCs)) EUB0001619a CDK5; assay type: cell-based; settings: PBMC, at 1 µM
[5] = Selectivity interaction (KinomeScan (DiscoverX)) EUB0000045b CDPK1
[6] = biological target: Tyrosine-protein kinase JAK1 (Homo sapiens, UniProt P23458); experiment: Selectivity interaction (KinomeScan (DiscoverX)) EUB0000045b JAK1; settings: at 10 µM
[7] = tested on: Phosphatidylinositol 4,5-bisphosphate 3-kinase catalytic subunit alpha isoform (Homo sapiens), P42336 [M1043I]; settings: at 10 µM
[8] = biological target: Myosin light chain kinase, smooth muscle (Homo sapiens, UniProt Q15746); experiment: Selectivity interaction (KinomeScan (DiscoverX)) EUB0000595a MYLK; settings: at 10 µM
[9] = biological target: RAC-beta serine/threonine-protein kinase (Homo sapiens) (UniProt P31751); settings: at 10 µM
[10] = biological target: Dual specificity protein kinase CLK4 (Homo sapiens, UniProt Q9HAZ1); settings: at 10 µM
[11] = biological target: Homeodomain-interacting protein kinase 1 (Homo sapiens, UniProt Q86Z02); experiment: Selectivity interaction (Kinase panel (Invitrogen)) EUB0000639a HIPK1; settings: at 200 nM
[12] = biological target: Serine/threonine-protein kinase 24 (Homo sapiens) (UniProt Q9Y6E0); experiment: Selectivity interaction (ActivX KiNativ screen (kinase selectivity in THP-1 cell lysates)) EUB0000639a STK24; assay type: subcellular; settings: lysate
[13] = biological target: RAC-alpha serine/threonine-protein kinase (Homo sapiens, UniProt P31749); experiment: Selectivity interaction (ActivX KiNativ screen (kinase selectivity in THP-1 cell lysates)) EUB0000639a AKT1; assay type: subcellular; settings: lysate
[14] = biological target: Bromodomain adjacent to zinc finger domain protein 2B (Homo sapiens) (UniProt Q9UIF8); experiment: Selectivity interaction (Human bromodomain panel (DSF assay)) EUB0000233b BAZ2B
Sequence of Bromodomain adjacent to zinc finger domain protein 2B (Homo sapiens) (Q9UIF8 whole entry, the tested form may be a part): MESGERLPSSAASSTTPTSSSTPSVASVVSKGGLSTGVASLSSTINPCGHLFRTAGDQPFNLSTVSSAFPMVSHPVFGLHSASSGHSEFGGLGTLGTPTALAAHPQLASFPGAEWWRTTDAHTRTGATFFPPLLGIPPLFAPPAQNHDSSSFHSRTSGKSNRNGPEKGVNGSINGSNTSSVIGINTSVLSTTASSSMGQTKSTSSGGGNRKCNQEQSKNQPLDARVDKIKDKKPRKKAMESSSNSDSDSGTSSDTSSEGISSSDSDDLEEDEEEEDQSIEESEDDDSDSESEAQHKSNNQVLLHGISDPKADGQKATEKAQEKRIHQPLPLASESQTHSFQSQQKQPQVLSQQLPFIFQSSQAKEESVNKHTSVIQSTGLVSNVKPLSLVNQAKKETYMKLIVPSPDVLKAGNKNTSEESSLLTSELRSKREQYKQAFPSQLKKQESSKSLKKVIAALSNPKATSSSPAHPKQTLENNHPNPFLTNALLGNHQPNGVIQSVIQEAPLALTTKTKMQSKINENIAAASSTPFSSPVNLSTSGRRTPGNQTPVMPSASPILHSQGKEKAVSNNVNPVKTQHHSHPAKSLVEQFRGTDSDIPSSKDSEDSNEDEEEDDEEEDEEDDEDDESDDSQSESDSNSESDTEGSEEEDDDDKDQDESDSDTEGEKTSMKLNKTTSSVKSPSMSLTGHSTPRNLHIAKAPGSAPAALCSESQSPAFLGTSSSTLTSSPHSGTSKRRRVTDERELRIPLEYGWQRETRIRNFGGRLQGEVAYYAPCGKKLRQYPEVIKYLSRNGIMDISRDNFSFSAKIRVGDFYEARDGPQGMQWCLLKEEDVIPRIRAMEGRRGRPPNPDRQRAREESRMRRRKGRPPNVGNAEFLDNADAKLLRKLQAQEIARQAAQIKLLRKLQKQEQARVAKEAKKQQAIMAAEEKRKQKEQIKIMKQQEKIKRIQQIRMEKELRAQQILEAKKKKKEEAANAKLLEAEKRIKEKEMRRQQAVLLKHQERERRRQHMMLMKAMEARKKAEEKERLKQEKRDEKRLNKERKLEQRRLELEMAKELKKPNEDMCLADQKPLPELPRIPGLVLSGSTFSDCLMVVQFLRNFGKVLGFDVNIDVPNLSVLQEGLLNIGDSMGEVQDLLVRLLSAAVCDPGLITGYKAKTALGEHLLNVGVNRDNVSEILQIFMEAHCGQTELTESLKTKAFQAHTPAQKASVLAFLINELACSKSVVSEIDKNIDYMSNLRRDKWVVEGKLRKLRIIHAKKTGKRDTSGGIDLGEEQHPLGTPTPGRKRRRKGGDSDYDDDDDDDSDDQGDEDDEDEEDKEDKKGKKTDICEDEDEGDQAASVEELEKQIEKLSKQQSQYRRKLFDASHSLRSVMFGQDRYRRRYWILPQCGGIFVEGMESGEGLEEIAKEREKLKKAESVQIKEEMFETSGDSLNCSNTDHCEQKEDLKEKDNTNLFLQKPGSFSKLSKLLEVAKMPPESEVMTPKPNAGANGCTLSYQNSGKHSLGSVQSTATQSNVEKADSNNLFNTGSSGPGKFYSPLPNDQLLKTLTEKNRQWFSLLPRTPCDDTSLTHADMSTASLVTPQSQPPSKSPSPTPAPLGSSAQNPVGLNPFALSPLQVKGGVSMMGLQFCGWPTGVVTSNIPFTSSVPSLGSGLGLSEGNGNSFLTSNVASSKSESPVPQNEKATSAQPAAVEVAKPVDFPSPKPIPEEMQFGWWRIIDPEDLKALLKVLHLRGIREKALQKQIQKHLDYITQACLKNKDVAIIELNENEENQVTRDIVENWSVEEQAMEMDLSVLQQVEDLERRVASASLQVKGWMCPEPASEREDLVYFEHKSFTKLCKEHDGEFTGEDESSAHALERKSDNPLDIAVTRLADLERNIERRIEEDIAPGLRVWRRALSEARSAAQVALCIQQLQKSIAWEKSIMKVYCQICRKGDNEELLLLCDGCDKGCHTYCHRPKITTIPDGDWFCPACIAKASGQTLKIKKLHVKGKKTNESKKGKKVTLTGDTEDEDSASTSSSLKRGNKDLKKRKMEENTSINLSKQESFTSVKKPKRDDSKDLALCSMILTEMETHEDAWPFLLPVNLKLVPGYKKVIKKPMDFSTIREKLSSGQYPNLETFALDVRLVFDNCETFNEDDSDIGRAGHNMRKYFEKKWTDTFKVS

Sequence of Serine/threonine-protein kinase 24 (Homo sapiens) (Q9Y6E0 whole entry, looked up): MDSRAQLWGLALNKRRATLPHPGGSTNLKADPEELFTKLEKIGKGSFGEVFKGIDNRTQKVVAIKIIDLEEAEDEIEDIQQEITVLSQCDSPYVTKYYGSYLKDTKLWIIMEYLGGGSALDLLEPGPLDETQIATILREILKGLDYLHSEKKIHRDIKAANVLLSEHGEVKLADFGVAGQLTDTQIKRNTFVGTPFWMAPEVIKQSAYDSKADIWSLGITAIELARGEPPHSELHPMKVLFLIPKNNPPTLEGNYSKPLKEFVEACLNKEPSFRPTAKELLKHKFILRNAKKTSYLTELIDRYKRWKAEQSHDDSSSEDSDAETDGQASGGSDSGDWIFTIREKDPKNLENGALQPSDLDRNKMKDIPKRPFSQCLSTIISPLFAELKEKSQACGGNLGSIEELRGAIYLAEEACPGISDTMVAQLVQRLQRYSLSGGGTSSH
Sequence of RAC-alpha serine/threonine-protein kinase (P31749 whole entry, the tested form may be a part): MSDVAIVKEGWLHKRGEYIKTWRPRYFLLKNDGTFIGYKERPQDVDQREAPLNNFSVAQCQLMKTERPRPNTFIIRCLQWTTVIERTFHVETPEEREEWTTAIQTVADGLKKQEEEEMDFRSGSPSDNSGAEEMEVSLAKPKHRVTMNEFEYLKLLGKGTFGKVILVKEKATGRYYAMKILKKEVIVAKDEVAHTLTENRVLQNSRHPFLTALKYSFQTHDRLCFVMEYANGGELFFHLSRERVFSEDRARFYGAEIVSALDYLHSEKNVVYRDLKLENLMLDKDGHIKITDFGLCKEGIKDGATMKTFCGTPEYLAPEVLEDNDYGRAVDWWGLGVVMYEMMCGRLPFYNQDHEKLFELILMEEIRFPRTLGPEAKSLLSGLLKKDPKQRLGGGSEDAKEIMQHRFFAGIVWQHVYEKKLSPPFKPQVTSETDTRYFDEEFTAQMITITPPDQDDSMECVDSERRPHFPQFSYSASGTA
Sequence of Dual specificity protein kinase CLK4 (Q9HAZ1 whole entry, looked up): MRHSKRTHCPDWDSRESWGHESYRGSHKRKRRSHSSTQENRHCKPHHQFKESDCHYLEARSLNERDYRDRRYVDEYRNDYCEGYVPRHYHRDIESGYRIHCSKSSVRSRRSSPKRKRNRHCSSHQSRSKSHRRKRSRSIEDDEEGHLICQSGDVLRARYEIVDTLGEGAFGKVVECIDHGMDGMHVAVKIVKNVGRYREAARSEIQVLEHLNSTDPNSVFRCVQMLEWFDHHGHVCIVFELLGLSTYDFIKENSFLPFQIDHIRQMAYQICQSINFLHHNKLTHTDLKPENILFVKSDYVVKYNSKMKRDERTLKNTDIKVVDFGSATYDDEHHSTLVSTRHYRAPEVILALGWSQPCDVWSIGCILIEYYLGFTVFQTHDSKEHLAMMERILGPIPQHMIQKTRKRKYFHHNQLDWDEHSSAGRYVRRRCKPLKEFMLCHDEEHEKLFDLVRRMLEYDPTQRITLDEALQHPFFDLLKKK
Sequence of Serine/threonine-protein kinase 38-like (Homo sapiens) (Q9Y2H1 2-464 limits assumed): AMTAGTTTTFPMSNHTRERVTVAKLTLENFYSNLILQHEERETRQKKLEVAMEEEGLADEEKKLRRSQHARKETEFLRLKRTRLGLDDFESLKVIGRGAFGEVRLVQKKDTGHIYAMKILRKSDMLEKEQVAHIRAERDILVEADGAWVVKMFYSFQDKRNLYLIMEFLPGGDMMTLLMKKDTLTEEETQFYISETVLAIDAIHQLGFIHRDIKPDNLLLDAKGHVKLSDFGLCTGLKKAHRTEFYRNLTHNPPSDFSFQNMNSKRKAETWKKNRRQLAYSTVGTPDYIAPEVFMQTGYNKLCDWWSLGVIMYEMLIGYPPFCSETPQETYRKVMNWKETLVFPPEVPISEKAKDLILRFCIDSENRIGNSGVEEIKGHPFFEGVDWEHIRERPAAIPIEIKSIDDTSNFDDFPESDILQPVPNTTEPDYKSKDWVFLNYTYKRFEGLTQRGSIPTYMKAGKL
Sequence of Phosphatidylinositol 4,5-bisphosphate 3-kinase catalytic subunit alpha isoform (Homo sapiens), P42336 [M1043I] (P42336 whole entry M1043I, canonical isoform): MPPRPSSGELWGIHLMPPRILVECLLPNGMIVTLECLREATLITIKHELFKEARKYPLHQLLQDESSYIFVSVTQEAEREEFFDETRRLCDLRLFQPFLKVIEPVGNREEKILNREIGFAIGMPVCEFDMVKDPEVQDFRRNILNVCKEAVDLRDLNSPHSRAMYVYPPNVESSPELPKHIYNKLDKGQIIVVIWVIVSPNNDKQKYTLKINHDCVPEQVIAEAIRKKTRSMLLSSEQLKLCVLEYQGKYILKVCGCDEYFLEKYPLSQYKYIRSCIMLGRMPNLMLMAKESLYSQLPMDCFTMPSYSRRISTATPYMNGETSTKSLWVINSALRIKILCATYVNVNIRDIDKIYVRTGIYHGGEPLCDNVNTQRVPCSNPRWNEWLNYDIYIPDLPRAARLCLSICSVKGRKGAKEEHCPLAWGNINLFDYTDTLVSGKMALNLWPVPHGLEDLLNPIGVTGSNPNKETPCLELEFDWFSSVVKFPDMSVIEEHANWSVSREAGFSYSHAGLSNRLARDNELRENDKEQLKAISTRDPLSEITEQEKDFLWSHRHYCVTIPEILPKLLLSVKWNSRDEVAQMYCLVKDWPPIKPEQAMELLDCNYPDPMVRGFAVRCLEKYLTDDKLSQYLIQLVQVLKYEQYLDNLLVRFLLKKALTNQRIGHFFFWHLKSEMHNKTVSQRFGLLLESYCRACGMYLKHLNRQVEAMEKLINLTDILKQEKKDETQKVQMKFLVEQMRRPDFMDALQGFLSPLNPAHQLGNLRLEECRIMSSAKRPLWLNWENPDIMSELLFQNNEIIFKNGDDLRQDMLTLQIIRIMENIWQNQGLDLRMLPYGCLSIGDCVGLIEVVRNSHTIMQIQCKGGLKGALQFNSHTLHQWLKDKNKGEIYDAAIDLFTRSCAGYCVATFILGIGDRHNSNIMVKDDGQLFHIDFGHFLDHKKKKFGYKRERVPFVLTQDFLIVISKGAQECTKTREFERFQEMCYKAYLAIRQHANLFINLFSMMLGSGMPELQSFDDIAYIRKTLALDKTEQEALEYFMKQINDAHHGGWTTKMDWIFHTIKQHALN

SMILES: CN(C)CCOc1ccc(-c2nc(-c3ccncc3)c(-c3ccc4c(c3)CC/C4=N\O)[nH]2)cc1
% of control [1]: 35%
% of control [2]: 100%

SMILES: Nc1cnc(N2CCc3cc(S(=O)(=O)Nc4c(F)cc(Cl)cc4F)cc(N4CCCC4=O)c32)nc1 [TP-020n]
% of control [3]: 42%

SMILES: N#Cc1cccc(-c2c[nH]c3ncnc(N4CCOCC4)c23)c1
% of inhibition [4]: -9%

SMILES: C=CC(=O)Nc1cc(-n2c(=O)ccc3cnc4ccc(-c5ccc(NS(C)(=O)=O)cc5)cc4c32)ccc1C
% of control ([5]; at 1 µM): 100%
% of control ([5]; at 10 µM): 62%
% of control [6]: 93%

SMILES: COCC(=O)NC/C=C/c1ccc2ncnc(Nc3ccc(Oc4ccc(C)nc4)c(C)c3)c2c1 [CP-724714]
% of control [7]: 100%
% of control [8]: 87%

SMILES: Cc1cc([C@@H](C)Nc2ccccc2C(=O)O)c2nc(N3CCOCC3)cc(=O)n2c1 [AZD-6482]
% of control [9]: 86%
% of control [10]: 68%

% of inhibition [11]: 7.68%
% of inhibition ([12]; at 0.01 µM): 3.4%
% of inhibition ([12]; at 0.04 µM): -19.7%
% of inhibition ([12]; at 0.2 µM): -5.9%
% of inhibition ([12]; at 1 µM): 6%
% of inhibition ([12]; at 5 µM): 5.4%
% of inhibition ([13]; at 0.01 µM): -4.8%
% of inhibition ([13]; at 0.04 µM): 7.5%
% of inhibition ([13]; at 0.2 µM): 11.8%
% of inhibition ([13]; at 1 µM): 9.4%
% of inhibition ([13]; at 5 µM): 7.6%
SMILES: CC[C@@H]1[C@H](F)C(=O)N[C@@H]1COc1nccc2cc(C(N)=O)c(OC)cc12 [ZIMLOVISERTIB]

dTM [14]: < 2 K
SMILES: CN(C)CCCOc1ccc(-c2cc(NCCCn3cccn3)nc(S(C)(=O)=O)n2)cc1
